In patent publication US8252520B2, “Methods and compounds for inhibiting Hec1 activity for the treatment of proliferative diseases” (Taivex Therapeutics Corporation, priority 2002, dated 2012):
“Also recorded” adds a separate entry of the source.

How the values were obtained:
Format in all cases: cell-based
[1] = test system: HeLa cells; assay: flow cytometric (FACS) analysis of treated HeLa cells; conditions: 5 or 10 μM, 72 hrs
Method: FIG. 14B. Flow cytometric analysis of INH1 treated HeLa cells. Exponentially grown HeLa cells were seeded at 5×10^5 cells per 10-cm dish for 24 hrs and then treated with DMSO (control) or 5 or 10 μM of INH1 for 72 hrs. Cells were harvested and fixed in 70% ethanol for flow cytometry after staining with propidium iodide. Data represent one of three independent experiments.

[2] = test system: HeLa cells; assay: small-scale killing of dividing HeLa cells; conditions: dose of 20 (unit not given)
Excerpt: (§1) To determine whether the identified compounds would have the same effect in mammalian cells, we used HeLa cells to test the effects of these compounds in a small-scale experiment. […] These two compounds were named INH1 and INH2 (INH1, MW: 308.41; also referred to herein as IBT 13131; see FIG. 16; INH2, MW 382.49; also referred to herein as IBT 14664; see FIG. 16).

[3] = test system: Nek2 phosphorylation of Hec1 at S165; assay: Western blot of Hec1 S165 phosphorylation (anti-A439) in treated HeLa cells; conditions: 20 μM, 36 hours
Method: HeLa cells (lane 1) were treated with 0.08% DMSO (lane 2), 20 μM of INH1 (lane 3), INH2 (lane 4) or nocodazole (lane 5) for 36 hours before cells were harvested for immunoblotting with anti-Hec1, mAb9G3, for total Hec1 protein or anti-A439 for the phosphorylated Hec1 at S165 (pHEC1). Nek2 phosphorylation of Hec1 is undetectable in INH1 and INH2 treated cells (lanes 3 and 4).
(§2) We performed a co-immunoprecipitation assay using cells treated with INH1 or INH2 to test whether these compounds disrupt the interaction between Hec1 and Nek2. […] Similarly, we examined whether Nek2 phosphorylation of Hec1 is diminished in the cells treated with these drugs by Western blotting with […], which recognizes specifically the phosphorylated S165 of Hec1.

[4] = test system: HeLa cells; assay: microscopy of H2B-GFP labeled HeLa cells (chromosome segregation); conditions: 10 mM of INH1 (FIG. 14A)
Method: FIG. 14A. Micrographic pictures of H2B-GFP labeled HeLa cells treated with DMSO (Mock) or 10 mM of INH1. White arrows indicate lagging chromosomes during M phase.

[5] = test system: RB-reconstituted Saos2 cells (SR5); assay: cell killing, trypan blue exclusion, RB-reconstituted Saos2 cells; conditions: 10 μM, 60 hours
Method: (§3) FIG. 15. Differential effect of INH1 in Rb positive and negative osteosarcoma Saos2 cells. Cells grown in log-phase were either untreated or treated with 0.08% DMSO or INH1 at the indicated concentrations for 60 hours. Surviving cells were counted by trypan blue exclusion and expressed as a percentage of the control. SR5 is a Rb reconstituted Saos-2 cell line. The values were the average of a triplicate set of experiments, with error bars representing the SEM.

[6] = test system: parental (RB-negative) Saos2 cells; assay: cell killing, trypan blue exclusion, parental Saos2 cells; conditions: 10 μM, 60 hours
Method: as §3

[7] = molecular target: T1, interaction between Hec1 and Nek2 (Homo sapiens, UniProt O14777); assay: co-immunoprecipitation of Nek2 with Hec1 from treated HeLa cells; conditions: 10 and 20 μM, 24 hours
T1 construct: endogenous in cells; host or cells: HeLa cells
T1 sequence (O14777 1-642): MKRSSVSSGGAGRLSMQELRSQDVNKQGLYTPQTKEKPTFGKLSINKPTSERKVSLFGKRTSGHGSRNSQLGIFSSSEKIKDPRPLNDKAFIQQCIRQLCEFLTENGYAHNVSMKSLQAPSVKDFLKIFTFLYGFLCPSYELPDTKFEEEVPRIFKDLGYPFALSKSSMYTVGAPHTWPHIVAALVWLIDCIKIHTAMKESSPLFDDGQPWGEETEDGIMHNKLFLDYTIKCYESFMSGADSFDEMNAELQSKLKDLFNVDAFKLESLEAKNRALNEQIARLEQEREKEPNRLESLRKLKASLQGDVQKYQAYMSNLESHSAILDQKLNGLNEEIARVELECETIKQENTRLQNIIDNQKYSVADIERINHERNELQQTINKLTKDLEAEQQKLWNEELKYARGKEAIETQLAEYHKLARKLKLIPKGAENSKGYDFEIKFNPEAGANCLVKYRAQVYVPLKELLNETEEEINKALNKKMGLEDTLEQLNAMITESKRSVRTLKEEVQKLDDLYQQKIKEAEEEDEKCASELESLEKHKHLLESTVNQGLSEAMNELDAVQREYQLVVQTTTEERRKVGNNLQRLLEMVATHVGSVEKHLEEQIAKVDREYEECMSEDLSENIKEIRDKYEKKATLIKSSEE
Method: FIG. 13A. Dissociation of Hec1 and Nek2 in INH1I-treated cells. HeLa cells were grown in log-phase and treated with 0.08% DMSO or with the indicated concentration of INH1 for 24 hours. Cells were harvested for immunoprecipitation with the anti-Hec1 antibody mAb 9G3. The immunoprecipitates were analyzed by western blot with either mAb 9G3 or anti-Nek2 antibodies. […] Fractions of lysates were taken for straight western blot with anti-Rad50 antibodies as a loading control.
as §2

[8] = test system: HeLa cells; assay: colony formation assay in HeLa cells; conditions: 12 days treatment, INH1 compared with INH2
Method: FIG. 12. Effects of INH1 and INH2 on colony formation of HeLa cells. Exponentially grown cells were seeded at 800 cells per 10-cm dish for 24 h and treated with indicated concentrations of INH1 (MW: 308.41; also referred to herein as IBT 13131; see FIG. 17), INH2 (MW 382.49; also referred to herein as IBT 14664; see FIG. 17), or control (DMSO less than 0.1%) for 12 days. The colonies were fixed and stained with methylene blue and counted. The values were averaged from a triplicate set of experiments, and error bars represent the SEM.
as §1

Molecule	cell death by FACS analysis [1]	activity in killing dividing cells [2]	Nek2 phosphorylation of Hec1 (S165) [3]	chromosome segregation phenotype [4]	cells killed [5]	cells killed [6]	Nek2 co-precipitated with anti-Hec1 antibodies [7]	Nek2 co-precipitated with anti-Hec1 antibodies ([7]; listed as INH 1)	killing activity by colony formation [8]
Cc1ccc(-c2csc(NC(=O)c3ccccc3)n2)c(C)c1 [INH1]	led to cell death	significant activity	abolished; also recorded: undetectable	generated chromosome missegregations	< 5%	more than 50%	very little or no Nek2 protein	Nek2 failed to be co-immunoprecipitated with Hec1	significant higher killing activity
INH2		significant activity	abolished; also recorded: undetectable						
